≈ marks a conversion by molar mass, not a printed value. Calls of active or inactive are those of the source. The calls are words filed in the database; no cut-off is given here. Peptide text beside a SMILES is read from it. * marks the point of attachment. Decanoyl = CCCCCCCCCC(=O)*
Tests used:
Pseudomonas aeruginosa [1] = assay: Antibacterial activity against Pseudomonas aeruginosa KD491 clinical isolate after 18 to 22 hrs by checkerboard method in presence of colistin; assay type: functional
Pseudomonas aeruginosa [2] = assay: Antibacterial activity against Pseudomonas aeruginosa KD491 clinical isolate after 18 to 22 hrs by checkerboard method in presence of tobramycin; assay type: functional
Pseudomonas aeruginosa [3] = assay: Antibacterial activity against Pseudomonas aeruginosa LESB58 clinical isolate after 18 to 22 hrs by checkerboard method in presence of colistin; assay type: functional
Pseudomonas aeruginosa [4] = assay: Antibacterial activity against Pseudomonas aeruginosa PAO1 clinical isolate after 18 to 22 hrs by checkerboard method in presence of colistin; assay type: functional
Pseudomonas aeruginosa [5] = assay: Antibacterial activity against Pseudomonas aeruginosa Clone C clinical isolate after 18 to 22 hrs by checkerboard method in presence of colistin; assay type: functional
Pseudomonas aeruginosa [6] = assay: Antibacterial activity against Pseudomonas aeruginosa Clone C clinical isolate after 18 to 22 hrs by checkerboard method in presence of tobramycin; assay type: functional
Pseudomonas aeruginosa [7] = assay: Antibacterial activity against Pseudomonas aeruginosa KD491 clinical isolate assessed as delay in growth at 4 to 8 ug/ml measured every 15 mins by microtiter plate reader method; assay type: functional, organism-based
Pseudomonas aeruginosa [8] = assay: Antibacterial activity against Pseudomonas aeruginosa KD491 clinical isolate assessed as growth inhibition at 4 ug/ml measured every 15 mins by microtiter plate reader method in presence of […] ug/ml colistin; assay type: functional, organism-based
Pseudomonas aeruginosa [9] = assay: Antibacterial activity against Pseudomonas aeruginosa LESB58 clinical isolate assessed as growth inhibition at 4 ug/ml measured every 15 mins by microtiter plate reader method in presence of 2 ug/ml colistin; assay type: functional, organism-based
Pseudomonas aeruginosa [10] = assay: Antibacterial activity against Pseudomonas aeruginosa PAO1 clinical isolate assessed as growth inhibition at 4 ug/ml measured every 15 mins by microtiter plate reader method in presence of 1 ug/ml colistin; assay type: functional, organism-based
Pseudomonas aeruginosa [11] = assay: Antibacterial activity against Pseudomonas aeruginosa Clone C clinical isolate assessed as growth inhibition at 8 ug/ml measured every 15 mins by microtiter plate reader method in presence of […] ug/ml colistin; assay type: functional, organism-based
Pseudomonas aeruginosa [12] = assay: Antibacterial activity against Pseudomonas aeruginosa Clone C clinical isolate assessed as growth inhibition at 16 ug/ml measured every 15 mins by microtiter plate reader method in presence of […] ug/ml tobramycin; assay type: functional, organism-based
Pseudomonas aeruginosa [13] = assay: Antibacterial activity against Pseudomonas aeruginosa KD491 clinical isolate assessed as inhibition of biofilm formation at 4 ug/ml after 18 to 22 hrs by crystal violet staining-based polystyrene microtiter plate reader method; assay type: functional
Pseudomonas aeruginosa [14] = assay: Toxicity in Pseudomonas aeruginosa KD491 clinical isolate assessed as inhibition of planktonic cell growth at 2 to 4 ug/ml after 18 to 22 hrs by microtiter plate reader method; assay type: organism-based; conditions: in vivo
Pseudomonas aeruginosa [15] = assay: Antibacterial activity against Pseudomonas aeruginosa Clone C clinical isolate assessed as inhibition of biofilm formation at 32 ug/ml after 18 to 22 hrs by crystal violet staining-based polystyrene microtiter plate reader method in presence of 2 ug/ml colistin; assay type: functional
Pseudomonas aeruginosa [16] = assay: Antibacterial activity against Pseudomonas aeruginosa PAO1 clinical isolate assessed as inhibition of biofilm formation at 32 ug/ml after 18 to 22 hrs by crystal violet staining-based polystyrene microtiter plate reader method in absence of colistin; assay type: functional, organism-based
Pseudomonas aeruginosa [17] = assay: Antibacterial activity against Pseudomonas aeruginosa Clone C clinical isolate assessed as inhibition of biofilm formation at 32 ug/ml after 18 to 22 hrs by crystal violet staining-based polystyrene microtiter plate reader method in absence of colistin; assay type: functional, organism-based
Pseudomonas aeruginosa [18] = assay: Antibacterial activity against Pseudomonas aeruginosa PAO1 clinical isolate assessed as delay in growth at 4 to 32 ug/ml measured every 15 mins by microtiter plate reader method; assay type: functional, organism-based
Pseudomonas aeruginosa [19] = assay: Antibacterial activity against Pseudomonas aeruginosa Clone C clinical isolate assessed as delay in growth at 8 to 16 ug/ml measured every 15 mins by microtiter plate reader method; assay type: functional, organism-based
Pseudomonas aeruginosa [20] = assay: Antibacterial activity against Pseudomonas aeruginosa LESB58 clinical isolate assessed as delay in growth rate in exponential phase of bacterial growth curve at 4 to 32 ug/ml measured every 15 mins by microtiter plate reader method; assay type: functional, organism-based
Pseudomonas aeruginosa [21] = assay: Antibacterial activity against Pseudomonas aeruginosa PAO1 clinical isolate assessed as inhibition of biofilm formation at 4 ug/ml after 18 to 22 hrs by crystal violet staining-based polystyrene microtiter plate reader method in presence of 0.5 ug/ml colistin; assay type: functional, organism-based
Pseudomonas aeruginosa [22] = assay: Antibacterial activity against Pseudomonas aeruginosa PAO1 clinical isolate assessed as inhibition of biofilm formation at 4 ug/ml after 18 to 22 hrs by crystal violet staining-based polystyrene microtiter plate reader method in presence of 0.5 ug/ml tobramycin; assay type: functional, organism-based
Pseudomonas aeruginosa [23] = assay: Antibacterial activity against Pseudomonas aeruginosa PAO1 clinical isolate assessed as inhibition of biofilm formation at 32 ug/ml after 18 to 22 hrs by crystal violet staining-based polystyrene microtiter plate reader method in presence of 2 ug/ml tobramycin; assay type: functional, organism-based
Pseudomonas aeruginosa [24] = assay: Antibacterial activity against Pseudomonas aeruginosa Clone C clinical isolate assessed as inhibition of biofilm formation at 32 ug/ml after 18 to 22 hrs by crystal violet staining-based polystyrene microtiter plate reader method in presence of 2 ug/ml tobramycin; assay type: functional, organism-based
[25] = Hemolytic activity in erythrocytes (unknown origin) at 250 ug/ml; assay type: ADME, cell-based, Erythrocyte; conditions: read-out: Activity
[26] = Hemolytic activity in erythrocytes (unknown origin) at 32 ug/ml; assay type: ADME, cell-based, Erythrocyte; conditions: read-out: Activity
Pseudomonas aeruginosa [27] = assay: Antibacterial activity against Pseudomonas aeruginosa VW1633 clinical isolate after 16 to 20 hrs by microdilution assay; assay type: functional
Pseudomonas aeruginosa [28] = assay: Antibacterial activity against Pseudomonas aeruginosa LES431 clinical isolate after 16 to 20 hrs by microdilution assay; assay type: functional
Pseudomonas aeruginosa [29] = assay: Antibacterial activity against Pseudomonas aeruginosa KD491 clinical isolate assessed as inhibition of biofilm formation at 8 ug/ml after 24 hrs by propidium iodide staining-based confocal laser microscopy; assay type: functional, organism-based
Pseudomonas aeruginosa [30] = assay: Antibacterial activity against Pseudomonas aeruginosa D599 clinical isolate after 16 to 20 hrs by microdilution assay; assay type: functional
Pseudomonas aeruginosa [31] = assay: Antibacterial activity against Pseudomonas aeruginosa PAO1 clinical isolate after 16 to 20 hrs by microdilution assay; assay type: functional
Pseudomonas aeruginosa [32] = assay: Antibacterial activity against Pseudomonas aeruginosa Clone C clinical isolate after 16 to 20 hrs by microdilution assay; assay type: functional
Pseudomonas aeruginosa [33] = assay: Antibacterial activity against Pseudomonas aeruginosa VW1501 clinical isolate after 16 to 20 hrs by microdilution assay; assay type: functional
Pseudomonas aeruginosa [34] = assay: Antibacterial activity against Pseudomonas aeruginosa kl 1.1 clinical isolate after 16 to 20 hrs by microdilution assay; assay type: functional
Pseudomonas aeruginosa [35] = assay: Antibacterial activity against Pseudomonas aeruginosa KD557 clinical isolate after 16 to 20 hrs by microdilution assay; assay type: functional
Pseudomonas aeruginosa [36] = assay: Antibacterial activity against Pseudomonas aeruginosa VW1540 clinical isolate after 16 to 20 hrs by microdilution assay; assay type: functional
Pseudomonas aeruginosa [37] = assay: Antibacterial activity against Pseudomonas aeruginosa VW1485 clinical isolate after 16 to 20 hrs by microdilution assay; assay type: functional
Pseudomonas aeruginosa [38] = assay: Antibacterial activity against Pseudomonas aeruginosa VW0247 clinical isolate after 16 to 20 hrs by microdilution assay; assay type: functional
Pseudomonas aeruginosa [39] = assay: Antibacterial activity against Pseudomonas aeruginosa VW1538 clinical isolate after 16 to 20 hrs by microdilution assay; assay type: functional
Pseudomonas aeruginosa [40] = assay: Antibacterial activity against Pseudomonas aeruginosa LES400 clinical isolate after 16 to 20 hrs by microdilution assay; assay type: functional
Pseudomonas aeruginosa [41] = assay: Antibacterial activity against Pseudomonas aeruginosa LESB58 clinical isolate after 16 to 20 hrs by microdilution assay; assay type: functional

- MIC (Pseudomonas aeruginosa [27]): 16 µg/mL (≈ 12.1 µM)
- MIC (Pseudomonas aeruginosa [28]): 32 µg/mL (≈ 24.1 µM)
- MIC (Pseudomonas aeruginosa [30]): 128 µg/mL (≈ 96.4 µM)
- MIC (Pseudomonas aeruginosa [31]): 256 µg/mL (≈ 193 µM)
- MIC (Pseudomonas aeruginosa [32]): 128 µg/mL (≈ 96.4 µM)
- MIC (Pseudomonas aeruginosa [33]): 128 µg/mL (≈ 96.4 µM)
- MIC (Pseudomonas aeruginosa [34]): 128 µg/mL (≈ 96.4 µM)
- MIC (Pseudomonas aeruginosa [35]): 256 µg/mL (≈ 193 µM)
- MIC (Pseudomonas aeruginosa [36]): 64 µg/mL (≈ 48.2 µM)
- MIC (Pseudomonas aeruginosa [37]): 256 µg/mL (≈ 193 µM)
- MIC (Pseudomonas aeruginosa [38]): 64 µg/mL (≈ 48.2 µM)
- MIC (Pseudomonas aeruginosa [39]): 64 µg/mL (≈ 48.2 µM)
- MIC (Pseudomonas aeruginosa [40]): 64 µg/mL (≈ 48.2 µM)
- MIC (Pseudomonas aeruginosa [41]): 128 µg/mL (≈ 96.4 µM)
SMILES: CCCCCCCCCC(=O)NCCCC[C@H](NC(=O)[C@H](Cc1c[nH]c2ccccc12)NC(=O)[C@H](CCCNC(=N)N)NC(=O)[C@H](Cc1c[nH]c2ccccc12)NC(=O)[C@H](CCCNC(=N)N)NC(=O)[C@H](Cc1c[nH]c2ccccc12)NC(=O)[C@@H](N)CCCNC(=N)N)C(=O)O (H-RWRWRWK(Decanoyl)-OH)
- fractional inhibitory concentration index (FICI) (Pseudomonas aeruginosa [1]): 0.2625
- fractional inhibitory concentration index (FICI) (Pseudomonas aeruginosa [2]): 0.375
- fractional inhibitory concentration index (FICI) (Pseudomonas aeruginosa [3]): 0.375
- fractional inhibitory concentration index (FICI) (Pseudomonas aeruginosa [4]): 0.3125
- fractional inhibitory concentration index (FICI) (Pseudomonas aeruginosa [5]): 0.5
- fractional inhibitory concentration index (FICI) (Pseudomonas aeruginosa [6]): 0.5
- Activity (Pseudomonas aeruginosa [7]): Active
- growth inhibition (GI) (Pseudomonas aeruginosa [8]): Active
- growth inhibition (GI) (Pseudomonas aeruginosa [9]): Active
- growth inhibition (GI) (Pseudomonas aeruginosa [10]): Active
- growth inhibition (GI) (Pseudomonas aeruginosa [11]): Active
- growth inhibition (GI) (Pseudomonas aeruginosa [12]): Active
- inhibition at 4 µg/mL (Pseudomonas aeruginosa [13]): 52%
- Activity (Pseudomonas aeruginosa [14]): Non-toxic
- inhibition (INH) (Pseudomonas aeruginosa [15]): 70%
- inhibition (Pseudomonas aeruginosa [16]): inactive
- inhibition (Pseudomonas aeruginosa [17]): inactive
- Activity (Pseudomonas aeruginosa [18]): Active
- Activity (Pseudomonas aeruginosa [19]): Active
- Activity (Pseudomonas aeruginosa [20]): Active
- inhibition (Pseudomonas aeruginosa [21]): inactive
- inhibition (Pseudomonas aeruginosa [22]): inactive
- inhibition (Pseudomonas aeruginosa [23]): inactive
- inhibition (Pseudomonas aeruginosa [24]): inactive
- hemolysis at 250 ug/ml [25]: 50%
- hemolysis at 32 ug/ml [26]: < 10%
- inhibition (Pseudomonas aeruginosa [29]): inactive

— ChEMBL document CHEMBL3779859, “Synergistic activity of a short lipidated antimicrobial peptide (lipoAMP) and colistin or tobramycin against Pseudomonas aeruginosa from cystic fibrosis patients” (Medchemcomm, 2016)
